{"source": "patent US3984432A", "about": "“Color photographic recording material” (priority 1973, dated 1976)"}
{"test": "Solubility of coupling agents in tricresyl phosphate (oil) at 20° C (Table A)", "assay_type": "physicochemical", "conditions": "not given"}
{"smiles": "CCC(Oc1ccc(C(C)(C)CC)cc1C(C)(C)CC)C(=O)Nc1cc(Cl)c(C)c(Cl)c1O", "note": "(stereo not drawn) [US-PS 2,801,171 Coupling agent No. (4)]", "Solubility in g per g of tricresyl phosphate": "0.4 g per g of tricresyl phosphate"}
{"smiles": "CCCCCCCCCCCCOc1cccc(OC(CC)C(=O)Nc2cc(Cl)c(C)c(Cl)c2O)c1", "note": "(stereo not drawn)", "Solubility in g per g of tricresyl phosphate": "0.7 g per g of tricresyl phosphate"}
{"smiles": "CCCCCCCCCCCCCCCc1cccc(OC(CC)C(=O)Nc2cc(Cl)c(C)c(Cl)c2O)c1", "note": "(stereo not drawn)", "Solubility in g per g of tricresyl phosphate": "0.7 g per g of tricresyl phosphate"}
{"smiles": "CCCCCCCCCCCCCCCc1cccc(OC(CC)C(=O)Nc2cccc(C(=O)NC3=NN(c4c(Cl)cc(Cl)cc4Cl)C(=O)C3)c2)c1", "note": "(stereo not drawn)", "Solubility in g per g of tricresyl phosphate": "0.3 g per g of tricresyl phosphate"}
{"smiles": "CCCCCCCCCCOc1cccc(OCCC(=O)Nc2cccc(NC(=O)CC(=O)c3ccccc3C)c2)c1", "note": "[DT-OS 2,039,970]", "Solubility in g per g of tricresyl phosphate": "1 g per g of tricresyl phosphate"}
{"smiles": "CCCCCCCCCCCCOc1cccc(OC(CC)C(=O)Nc2cccc(C(=O)NC3=NN(c4c(Cl)cc(Cl)cc4Cl)C(=O)C3)c2)c1", "note": "(stereo not drawn)", "Solubility in g per g of tricresyl phosphate": "0.4 g per g of tricresyl phosphate"}
{"smiles": "CCCCOP(=O)(CC(=O)Nc1cccc(NC(=O)CC(=O)c2ccccc2)c1)OCCCC", "note": "[(109)]", "Solubility in g per g of tricresyl phosphate": "> 5 g per g of tricresyl phosphate"}
{"smiles": "CCCCCCCCCCCCCCCCCCNS(=O)(=O)c1ccc(N(CCCC)CCCC)c(NC(=O)CC(=O)c2ccccc2)c1", "note": "[DT-OS 1,522,414]", "Solubility in g per g of tricresyl phosphate": "1.2 g per g of tricresyl phosphate"}
{"smiles": "CCCCC(CC)COP(=O)(CCCNC(=O)c1ccc(Cl)c(NC(=O)CC(=O)C(C)(C)C)c1)OCC(CC)CCCC", "note": "(stereo not drawn) [(135)]", "Solubility in g per g of tricresyl phosphate": "> 5 g per g of tricresyl phosphate"}
{"smiles": "CCC(C)(C)c1ccc(OCC(=O)Nc2cccc(C(=O)NC3=NN(c4c(Cl)cc(Cl)cc4Cl)C(=O)C3)c2)c(C(C)(C)CC)c1", "Solubility in g per g of tricresyl phosphate": "0.6 g per g of tricresyl phosphate"}
{"smiles": "COc1ccc(C(=O)NCCCP(=O)(OC(C)C)OC(C)C)cc1NC(=O)CC(=O)c1ccccc1Cl", "note": "[(128)]", "Solubility in g per g of tricresyl phosphate": "> 5 g per g of tricresyl phosphate"}
{"test": "Absorption maximum after colour development in a photographic silver halide layer according to Use Example I", "assay_type": "physicochemical", "conditions": "not given", "in_short": "(§1)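 Coupling agent dispersed in tricresyl phosphate with gelatine at pH 6.5, mixed with silver bromide emulsion and hardener, cast on glass plates and dried at 32° C. Strips exposed to 500 Lux/cm^2 under a step wedge for 2 seconds, then processed at 24° C; absorption maximum read after colour development.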", "units": {"Abs.max. (single maximum)": "nm"}}
{"smiles": "CCCCOP(=O)(CC(=O)Nc1cccc(NC(=O)CC(=O)c2ccccc2)c1)OCCCC", "note": "[(109)]", "Abs.max. (single maximum)": 442}
{"smiles": "CCCCC(CC)COP(=O)(CCCNC(=O)c1ccc(Cl)c(NC(=O)CC(=O)C(C)(C)C)c1)OCC(CC)CCCC", "note": "(stereo not drawn) [(135)]", "Abs.max. (single maximum)": 445}
{"smiles": "COc1ccc(C(=O)NCCCP(=O)(OC(C)C)OC(C)C)cc1NC(=O)CC(=O)c1ccccc1Cl", "note": "[(128)]", "Abs.max. (single maximum)": 447}
{"smiles": "CCCCOP(=O)(CCCOc1cc(OCCCP(=O)(OCCCC)OCCCC)cc(C(=O)Nc2ccc(Cl)c(NC(=O)CC(=O)C(C)(C)C)c2)c1)OCCCC", "note": "[(116)]", "Abs.max. (single maximum)": 444}
{"smiles": "CCCCOP(=O)(CCCOc1cccc(NC(=O)CC(=O)c2ccccc2)c1)OCCCC", "note": "[(123)]", "Abs.max. (single maximum)": 436}
{"smiles": "COc1ccc(C(=O)NCCCP(=O)(OC(C)C)OC(C)C)cc1NC(=O)CC(=O)c1ccc(Cl)cc1", "note": "[(127)]", "Abs.max. (single maximum)": 444}
{"smiles": "CCOP(=O)(OCC)C(C)(C)NC(=O)c1cccc(NC(=O)c2cccc(NC(=O)CC(=O)c3ccccc3)c2)c1", "note": "[(107)]", "Abs.max. (single maximum)": 444}
{"smiles": "CCOP(=O)(CCCOc1cccc(NC(=O)c2ccc3ccccc3c2O)c1)OCC", "note": "[(601)]", "Abs.max. (single maximum)": 704}
{"test": "Absorption maximum after colour development in a photographic silver halide layer according to Use Example I", "assay_type": "physicochemical", "conditions": "pyrazolone coupling agents", "in_short": "as §1", "units": {"Abs.max., first of two maxima (subsidiary maximum)": "nm", "Abs.max., second of two maxima (absorption maximum)": "nm"}}
{"smiles": "CCCCC(CC)COP(=O)(CCCOc1cccc(NC2=NN(c3cccc(Cl)c3)C(=O)C2)c1)OCC(CC)CCCC", "note": "(stereo not drawn) [(413)]", "Abs.max., first of two maxima (subsidiary maximum)": 428, "Abs.max., second of two maxima (absorption maximum)": 533}
{"smiles": "CCCCOP(=O)(CCCOc1cccc(NC2=NN(c3cccc(Cl)c3)C(=O)C2)c1)OCCCC", "note": "[(411)]", "Abs.max., first of two maxima (subsidiary maximum)": 428, "Abs.max., second of two maxima (absorption maximum)": 532}
{"smiles": "CCCCC(CC)COP(=O)(CCCOc1cccc(C(=O)Nc2ccc(C(=O)NC3=NN(c4c(Cl)cc(Cl)cc4Cl)C(=O)C3)cc2)c1)OCC(CC)CCCC", "note": "(stereo not drawn) [(215)]", "Abs.max., first of two maxima (subsidiary maximum)": 434, "Abs.max., second of two maxima (absorption maximum)": 540}
{"smiles": "CC(C)OP(=O)(CCCCCOc1cccc(C(=O)Nc2cccc(C(=O)NC3=NN(c4c(Cl)cc(Cl)cc4Cl)C(=O)C3)c2)c1)OC(C)C", "note": "[(245)]", "Abs.max., first of two maxima (subsidiary maximum)": 434, "Abs.max., second of two maxima (absorption maximum)": 542}
{"smiles": "CCCCOP(=O)(CCCOc1cc(OCCCP(=O)(OCCCC)OCCCC)cc(C(=O)NC2=NN(c3ccc(C#N)cc3)C(=O)C2)c1)OCCCC", "note": "[(253)]", "Abs.max., first of two maxima (subsidiary maximum)": 440, "Abs.max., second of two maxima (absorption maximum)": 540}
{"smiles": "CCCCC(CC)COP(=O)(CCCOc1cccc(C(=O)Nc2cccc(C(=O)NC3=NN(c4c(C)cc(OC)cc4Cl)C(=O)C3)c2)c1)OCC(CC)CCCC", "note": "(stereo not drawn) [(264)]", "Abs.max., first of two maxima (subsidiary maximum)": 440, "Abs.max., second of two maxima (absorption maximum)": 536}
{"smiles": "CCOP(=O)(CCCOc1cccc(C(=O)Nc2cccc(C(=O)NC3=NN(c4c(Cl)cc(Cl)cc4Cl)C(=O)C3)c2)c1)OCC", "note": "[(205)]", "Abs.max., first of two maxima (subsidiary maximum)": 434, "Abs.max., second of two maxima (absorption maximum)": 542}
{"smiles": "CC(C)OP(=O)(CCCOc1cccc(C(=O)Nc2cccc(C(=O)NC3=NN(c4c(Cl)cc(Cl)cc4Cl)C(=O)C3)c2)c1)OC(C)C", "note": "[(232)]", "Abs.max., first of two maxima (subsidiary maximum)": 434, "Abs.max., second of two maxima (absorption maximum)": 541}
{"smiles": "CCOP(=O)(CCCOc1ccc(NC2=NN(c3c(Cl)cc(Cl)cc3Cl)C(=O)C2)cc1)OCC", "note": "[(404)]", "Abs.max., first of two maxima (subsidiary maximum)": 425, "Abs.max., second of two maxima (absorption maximum)": 530}
{"smiles": "CCOP(=O)(CCCCCOc1cccc(C(=O)Nc2cccc(C(=O)NC3=NN(c4c(Cl)cc(Cl)cc4Cl)C(=O)C3)c2)c1)OCC", "note": "[(230)]", "Abs.max., first of two maxima (subsidiary maximum)": 434, "Abs.max., second of two maxima (absorption maximum)": 544}
{"smiles": "CCCCOP(=O)(CCCOc1cc(OCCCP(=O)(OCCCC)OCCCC)cc(C(=O)Nc2cccc(C(=O)NC3=NN(c4c(Cl)cc(Cl)cc4Cl)C(=O)C3)c2)c1)OCCCC", "note": "[(222)]", "Abs.max., first of two maxima (subsidiary maximum)": 434, "Abs.max., second of two maxima (absorption maximum)": 544}
{"smiles": "CC(C)OP(=O)(CCCCCOc1cccc(C(=O)Nc2cccc(C(=O)NC3=NN(c4ccccc4)C(=O)C3)c2)c1)OC(C)C", "note": "[(246)]", "Abs.max., first of two maxima (subsidiary maximum)": 440, "Abs.max., second of two maxima (absorption maximum)": 532}
{"smiles": "CCCCOP(=O)(CCCOc1cccc(C(=O)NC2=NN(c3c(Cl)cc(Cl)cc3Cl)C(=O)C2)c1)OCCCC", "note": "[(237)]", "Abs.max., first of two maxima (subsidiary maximum)": 432, "Abs.max., second of two maxima (absorption maximum)": 536}
{"smiles": "CC(C)OP(=O)(CCCCCOc1cccc(C(=O)Nc2ccc(C(=O)NC3=NN(c4c(Cl)cc(Cl)cc4Cl)C(=O)C3)cc2)c1)OC(C)C", "note": "[(244)]", "Abs.max., first of two maxima (subsidiary maximum)": 434, "Abs.max., second of two maxima (absorption maximum)": 542}
{"smiles": "CCOP(=O)(CCCOc1ccc(C(=O)NC2=NN(c3c(Cl)cc(Cl)cc3Cl)C(=O)C2)cc1)OCC", "note": "[(204)]", "Abs.max., first of two maxima (subsidiary maximum)": 434, "Abs.max., second of two maxima (absorption maximum)": 534}
{"smiles": "CCOP(=O)(CCCOc1ccc(NC2=NN(c3ccccc3)C(=O)C2)cc1)OCC", "note": "[(405)]", "Abs.max., first of two maxima (subsidiary maximum)": 428, "Abs.max., second of two maxima (absorption maximum)": 526}
{"smiles": "CCCCC(CC)COP(=O)(CCCOc1cc(OCCCP(=O)(OCC(CC)CCCC)OCC(CC)CCCC)cc(C(=O)Nc2cccc(C(=O)NC3=NN(c4c(C)cc(C)cc4Cl)C(=O)C3)c2)c1)OCC(CC)CCCC", "note": "(stereo not drawn) [(263)]", "Abs.max., first of two maxima (subsidiary maximum)": 440, "Abs.max., second of two maxima (absorption maximum)": 534}
{"smiles": "CCCCC(CC)COP(=O)(CCCOc1cccc(C(=O)Nc2cccc(C(=O)NC3=NN(c4c(Cl)cc(Cl)cc4Cl)C(=O)C3)c2)c1)OCC(CC)CCCC", "note": "(stereo not drawn) [(219)]", "Abs.max., first of two maxima (subsidiary maximum)": 436, "Abs.max., second of two maxima (absorption maximum)": 542}
{"smiles": "CCCCC(CC)COP(=O)(CCCOc1cccc(OCC(=O)Nc2cccc(C(=O)NC3=NN(c4c(C)cc(C)cc4Cl)C(=O)C3)c2)c1)OCC(CC)CCCC", "note": "(stereo not drawn) [(271)]", "Abs.max., first of two maxima (subsidiary maximum)": 440, "Abs.max., second of two maxima (absorption maximum)": 532}
